Measured values published in US20020155565A1, “FAP-activated anti-tumor compounds” (priority 2000, published 2002).
Where a SMILES comes first, the peptide text is derived from it. [ ]: non-standard residue; d: D form. The star is where a group is joined. X1 = Cc1c(CC(=O)O)c(=O)oc2cc(N*)ccc12; Cbz = O=C(OCc1ccccc1)*; NMeA = CN[CH](C)C(=O)O; Sar = CNCC(=O)O

Target: T1, FAP (cell extract from 293 cells stably transfected with FAP) (Homo sapiens, UniProt Q12884)
T1 construct: Cell extract from 293 cells stably transfected with FAP prepared as described; expressed in transfected cells; host or cells: human embryonic kidney 293 cells (clone 293-I/2), vector pFAP.38
T1 sequence (Q12884 1-760): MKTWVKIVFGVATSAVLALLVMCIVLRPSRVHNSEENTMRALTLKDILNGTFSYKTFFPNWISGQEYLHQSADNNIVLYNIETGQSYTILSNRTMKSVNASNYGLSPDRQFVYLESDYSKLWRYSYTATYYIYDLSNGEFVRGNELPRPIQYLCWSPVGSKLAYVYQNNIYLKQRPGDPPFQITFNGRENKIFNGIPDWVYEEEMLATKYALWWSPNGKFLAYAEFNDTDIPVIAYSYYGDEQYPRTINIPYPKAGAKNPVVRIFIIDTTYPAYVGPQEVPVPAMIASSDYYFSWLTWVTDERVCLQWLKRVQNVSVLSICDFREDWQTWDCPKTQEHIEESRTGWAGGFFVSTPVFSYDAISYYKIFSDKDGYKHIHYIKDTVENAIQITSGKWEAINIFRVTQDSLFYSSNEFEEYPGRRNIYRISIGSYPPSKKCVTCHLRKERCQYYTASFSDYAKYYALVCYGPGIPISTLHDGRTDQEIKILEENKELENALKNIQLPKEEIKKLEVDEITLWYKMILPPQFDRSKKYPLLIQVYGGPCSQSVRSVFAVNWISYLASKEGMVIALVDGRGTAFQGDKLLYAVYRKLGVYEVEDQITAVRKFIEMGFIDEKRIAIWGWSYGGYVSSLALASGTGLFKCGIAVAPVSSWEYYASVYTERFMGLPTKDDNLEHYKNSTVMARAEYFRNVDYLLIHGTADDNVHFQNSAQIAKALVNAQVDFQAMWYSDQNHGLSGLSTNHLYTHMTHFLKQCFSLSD
Test: Assay for cleavage of AMCA substrates by FAP
Type: biochemical
Conditions: 1 ng FAP enzyme, 20 μl 2.5 mM substrate in 100 μl, room temperature, 1 hour; FAP-negative 293 control extract subtracted
Protocol: The turnover and cleavage rate have been determined with the aid pf the following assay:
Assay for cleavage of AMCA substrates by FAP
Cell extract from 293 cells stably transfected with FAP prepared as described (see Park, et al., Fibroblast Activation Protein, a Dual Specificity Serine Protease expressed in human tumor stromal fibroblasts. (1999) J. Biol. Chem. 36505-12.). A similar extract was also prepared from parental 293 control cells without FAP. The FAP concentration in the FAP-transfected cell extract was estimated by immunoassay and 1 ng enzyme (diluted in buffer A) was used per assay. FAP-negative 293 control cell extract was used at the same dilution (also in buffer A) as a negative control. Substrate was initially dissolved in dimethylformamide at a concentration of 200 mM and diluted in buffer A to a final concentration of 2.5 mM. A few substrates were not soluble at this concentration and had to be diluted further.
10 μl 10% DMSO in buffer A
70 μl diluted FAP cell extract containing 1 ng FAP enzyme (OR control 293 cell extract without FAP)
Mix, incubate at room temperature for 1 hour, and measure fluorescence in Fluorostar fluorimeter at the following wavelengths:
AMCA conjugates: Excitation: 390 nm, Emission: 440 nm.
The fluorescence measured in the samples treated with control 293 control cell extracts without FAP is subtracted from the values measured in the samples treated with 1 ng FAP enzyme.

**Q.** With Cc1c(CC(=O)O)c(=O)oc2cc(NC(=O)CN(C)C(=O)CNC(=O)OCc3ccccc3)ccc12 [Z-Gly-Sar-AMCA, Z-Gly-Sar-AMCA-OH] as the compound, how does the Cleavage read?
**A.** The Cleavage was 0,22 μM.

**Q.** What about the Turnover of the same compound?
**A.** Its Turnover is 0,044%.

**Q.** How did the Cleavage turn out when Cc1c(CC(=O)O)c(=O)oc2cc(NC(=O)C(C)N(C)C(=O)CNC(=O)C(C)NC(=O)C3CCCN3C(=O)OCc3ccccc3)ccc12 (stereo not drawn) [Z-Pro-Ala-Gly-MeAla-AMCA] (Cbz-PAG[NMeA]-X1; configuration not given here) was run?
**A.** The Cleavage was 0,11 μM.

**Q.** And the Turnover?
**A.** The Turnover was 0,044%.

**Q.** Which results are given for Cc1c(CC(=O)O)c(=O)oc2cc(NC(=O)CN(C)C(=O)CNC(=O)C(C)NC(=O)C3CCCN3C(=O)OCc3ccccc3)ccc12 (stereo not drawn) [Z-Pro-Ala-Gly-Sar-AMCA] (Cbz-PAG[Sar]-X1; configuration not given here)?
**A.** Cleavage: 0,09 μM; Turnover: 0,036%
